Experimental data taken from patent US8518958B2, “Pyrido [2,3-D] pyrimidines and their use as kinase inhibitors” (Forma Therapeutics, Inc., priority 2006, dated 2013).

How the values were obtained:
B-Raf delta1-415 = B-Raf delta1-415 (Homo sapiens, UniProt P15056); experiment: B-Raf kinase inhibition (MAPH filter plate, 33P-ATP, MEK1 substrate); settings: read-out: Biochemical IC50 B-Raf
Text: We characterized the in vitro inhibitory activity against protein kinases of compounds of the present invention by determining their IC50 values (see Table 2).
Kinase: B-Raf delta1-415 (e.g., Upstate Cat. No. 14-530)
Reaction Temperature: room temperature
Assay Plate: 96 well U bottom plate (Greiner, 650161)
MultiScreen-PH Plate: 96 well MAPH Filter Plates (Millipore, MAPHNOB50)
Filter Washing Solution: 0.75% H3PO4
Szintilation Liquid: Supermix Liquid Szintillator (PerkinElmer, 1200-439)
Negative Control (C−): 100 mM EDTA, no Inhibitor
Positive Control (C+): no Inhibitor
Reaction Buffer: 20 mM Mops, pH 7.0 • 10 mM MgCl2 • 0.4 mM MnCl2 • 100 mM NaCl • 1 mM DTT • 0.01% NP40
Final Assay Concentrations:
Kinase: Kinase conc. yielding 50% substrate turnover as determined in titration experiment.
Adenosine 5′-[γ-^33P]triphosphate: 12.5 μCi/ml (Amersham Biosciences, BF1000)
Pipetting Sequence: • 1) Add 10 μl 4-fold concentrated substrate in 3-fold concentrated reaction buffer to each well of assay plate • 2) Add 10 μl 4-fold concentrated inhibitor in 4% DMSO in H2O to each well except to C− and C+ wells (starting point: final inhibitor concentration 10 μM; IC50 determination based on dilution series) • 3) Add 10 μl 4% DMSO in H2O to C− and C+ wells • 4) Add 10 μl 500 mM EDTA in H2O to C− wells • 5) Add 10 μl 50 μCi/ml adenosine 5′-[γ-^33P]triphosphate in H2O+4-fold cold ATP to each well • 6) Add 10 μl 4-fold concentrated kinase in reaction buffer to each well • 7) Incubate 1 hr at room temperature • 8) Add 10 μl 50 mM EDTA in H2O to each well except to C− wells • 9) Prepare MAPH plates by adding 200 μl 0.75% H3PO4 to each well • 10) Exhaust 0.75% H3PO4 using Millipore vacuum station • 11) Add 60 μl 0.75% H3PO4 to each well of MAPH filter plate • 12) Transfer 30 μl sample per well from assay plate to corresponding well of MAPH filter plate • 13) Incubate 30 min at room temperature • 14) Wash each well of MAPH filter plates 3× with 200 μl 0.75% H3PO4 using Millipore vacuum station • 15) Add 20 μl scintillation liquid to each well of MAPH filter plate • 16) Seal MAPH filter plate • 17) Store MAPH filter plate 30 min in darkness • 18) Quantify radioactivity using scintillation counter (MicroBeta, Perkin-Elmer)

HT-29 tumor cells = experiment: Anti-proliferative activity, SRB assay; assay type: cell-based, human; settings: Homo sapiens, HT-29, 72 h, 72 hours exposure, read-out: CELLULAR IC50 HT-29
Method: We observed the surprising finding that compounds of the invention were useful in inhibiting proliferation of HT-29 tumor cells (see Table 3).
3,000-15,000 cells/well were exposed to the test compounds at various concentrations appropriate to determine an IC50, for 72 hours, and cell proliferation was measured using the SRB assay according to Shekan et al (J Natl Cancer Inst (1990) 82, 1107-112) in order to estimate the IC50 values shown in Table 3. Briefly, cells were plated in 96 well dishes 24 hours prior to compound addition. The assay was terminated with the addition of cold TCA to a final concentration of 10% and the plates were incubated for one hour at 4° C. The plates were then washed 5 times with water and 100 μl of a Sulforhodamine B solution (4%) was added to each well. The plate was then incubated for 10 minutes at room temperature before removal of unbound dye by washing with 1% acetic acid. The bound dye was solubilized with 10 mM Trizma base and the absorbance read at OD570. Inhibitory activity of the compounds was calculated as % inhibition of cell proliferation compared to cells treated with the solvent (DMSO).

Sequence of B-Raf delta1-415 (P15056 416-766): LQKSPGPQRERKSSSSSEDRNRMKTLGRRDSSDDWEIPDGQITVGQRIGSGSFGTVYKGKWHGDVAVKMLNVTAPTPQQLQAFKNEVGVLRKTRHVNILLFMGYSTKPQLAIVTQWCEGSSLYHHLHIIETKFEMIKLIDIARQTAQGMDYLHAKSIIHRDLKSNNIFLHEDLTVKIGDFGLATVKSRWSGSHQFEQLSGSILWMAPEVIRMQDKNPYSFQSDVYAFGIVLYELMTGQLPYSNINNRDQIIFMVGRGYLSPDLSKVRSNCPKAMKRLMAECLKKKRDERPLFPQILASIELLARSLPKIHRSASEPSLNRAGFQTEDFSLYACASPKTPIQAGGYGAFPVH

Structure (SMILES): CC(C)On1c(=O)c(-c2ccccc2Cl)cc2cnc(Nc3ccccc3)nc21 [Compound 65]
- IC50 (B-Raf delta1-415): > 10 µM
- IC50 (HT-29 tumor cells): > 10 µM

Structure (SMILES): NCCCCOn1c(=O)c(-c2c(Cl)cccc2Cl)cc2cnc(Nc3ccccc3)nc21 [Compound 66, 8-(4-Aminobutyl)oxy-6-(2,6-dichlorophenyl)-2-phenylamino-pyrido[2,3-d]pyrimidin-7-one]
- IC50 (B-Raf delta1-415): < 0.1 µM

Structure (SMILES): COc1cccc(Nc2ncc3cc(-c4c(F)cccc4Cl)c(=O)n(OC[C@H](O)CO)c3n2)c1 [Compound 76, 6-(2-Chloro-6-fluorophenyl)-8-(2-(R)-2,3-dihydroxypropyl)oxy-2-(3-methoxyphenyl)amino-pyrido[2,3-d]pyrimidin-7-one]
- IC50 (B-Raf delta1-415): < 0.5 µM
- IC50 (HT-29 tumor cells): < 1 µM

Structure (SMILES): COC(=O)c1cc(Nc2ncc3cc(-c4c(C)cccc4C)c(=O)n(OC)c3n2)cn1C [Compound 79]
- IC50 (B-Raf delta1-415): < 0.5 µM
- IC50 (HT-29 tumor cells): < 1 µM

Structure (SMILES): COn1c(=O)c(-c2c(Cl)cccc2Cl)cc2cnc(NC(=O)C3CC3)nc21 [Compound 80, 2-Cyclopropylcarbonylamino-6-(2,6-dichlorophenyl)-8-methoxy-pyrido[2,3-d]pyrimidin-7-one]
- IC50 (B-Raf delta1-415): > 1 µM
- IC50 (HT-29 tumor cells): > 10 µM

Structure (SMILES): CCN(CC)CCNC(=O)c1cc(Nc2ncc3cc(-c4c(Cl)cccc4Cl)c(=O)n(OC)c3n2)cn1C [Compound 81, 6-(2,6-Dichlorophenyl)-2-(5-(2-diethylaminoethyl)aminocarbonyl-1-methyl-pyrrol-3-yl)-amino-8-methoxy-pyrido[2,3-d]pyrimidin-7-one]
- IC50 (B-Raf delta1-415): < 0.5 µM
- IC50 (HT-29 tumor cells): < 1 µM

Structure (SMILES): COn1c(=O)c(-c2c(Cl)cccc2Cl)cc2cnc(Nc3cc(C(=O)NCCO)n(C)c3)nc21 [Compound 82, 6-(2,6-Dichlorophenyl)-2-(5-(2-hydroxyethyl)aminocarbonyl-1-methyl-pyrrol-3-yl)-amino-8-methoxy-pyrido[2,3-d]pyrimidin-7-one]
- IC50 (B-Raf delta1-415): < 0.5 µM
- IC50 (HT-29 tumor cells): < 1 µM

Structure (SMILES): COn1c(=O)c(-c2c(C)cccc2C)cc2cnc(Nc3cc(C(=O)NCCO)n(C)c3)nc21 [Compound 83, 6-(2,6-Dimethylphenyl)-2-(5-(2-hydroxyethyl)aminocarbonyl-1-methyl-pyrrol-3-yl)-amino-8-methoxy-pyrido[2,3-d]pyrimidin-7-one]
- IC50 (B-Raf delta1-415): < 0.5 µM
- IC50 (HT-29 tumor cells): < 1 µM

Structure (SMILES): CCN(CC)CCNC(=O)c1cc(Nc2ncc3cc(-c4c(C)cccc4C)c(=O)n(OC)c3n2)cn1C [Compound 84, 6-(2,6-Dimethylphenyl)-2-(5-(2-diethylaminoethyl)aminocarbonyl-1-methyl-pyrrol-3-yl)-amino-8-methoxy-pyrido[2,3-d]pyrimidin-7-one]
- IC50 (B-Raf delta1-415): < 0.5 µM
- IC50 (HT-29 tumor cells): < 1 µM

Structure (SMILES): COn1c(=O)c(-c2c(Cl)cccc2Cl)cc2cnc(Nc3ccon3)nc21 [Compound 85, 6-(2,6-Dichlorophenyl)-2-(isoxazol-3-yl)-amino-8-methoxy-pyrido[2,3-d]pyrimidin-7-one]
- IC50 (B-Raf delta1-415): < 0.5 µM
- IC50 (HT-29 tumor cells): < 10 µM

Structure (SMILES): COn1c(=O)c(-c2c(Cl)cccc2Cl)cc2cnc(Nc3ccc(C#N)cc3)nc21 [Compound 86, 2-(4-Cyanophenyl)-amino-6-(2,6-dichlorophenyl)-8-methoxy-pyrido[2,3-d]pyrimidin-7-one]
- IC50 (B-Raf delta1-415): < 1 µM
- IC50 (HT-29 tumor cells): < 1 µM

Structure (SMILES): COn1c(=O)c(-c2c(C)cccc2C)cc2cnc(Nc3cc(C(=O)NCCN4CCCC4)n(C)c3)nc21 [Compound 87, 6-(2,6-Dimethylphenyl)-8-methoxy-2-(5-(2-pyrrolidinoethyl)aminocarbonyl-1-methyl-pyrrol-3-yl)-amino-pyrido[2,3-d]pyrimidin-7-one]
- IC50 (B-Raf delta1-415): < 0.5 µM
- IC50 (HT-29 tumor cells): < 1 µM

Structure (SMILES): COn1c(=O)c(-c2c(Cl)cccc2Cl)cc2cnc(Nc3cc[nH]n3)nc21 [Compound 88, 6-(2,6-Dichlorophenyl)-8-methoxy-2-(pyrazol-3-yl)-amino-pyrido[2,3-d]pyrimidin-7-one]
- IC50 (B-Raf delta1-415): < 0.5 µM
- IC50 (HT-29 tumor cells): < 10 µM

Structure (SMILES): COn1c(=O)c(-c2c(Cl)cccc2Cl)cc2cnc(Nc3ccc(OCCO)cc3)nc21 [Compound 89, 6-(2,6-Dichlorophenyl)-2-(4-(2-hydroxyethyl)oxyphenyl) amino-8-methoxy-pyrido[2,3-d]pyrimidin-7-one]
- IC50 (B-Raf delta1-415): < 0.1 µM
- IC50 (HT-29 tumor cells): < 1 µM

Structure (SMILES): COn1c(=O)c(-c2c(Cl)cccc2Cl)cc2cnc(Nc3nncs3)nc21 [Compound 90, 6-(2,6-Dichlorophenyl)-8-methoxy-2-(1-thia-3,4-diazol-2-yl)-amino-pyrido[2,3-d]pyrimidin-7-one]
- IC50 (B-Raf delta1-415): < 0.5 µM
- IC50 (HT-29 tumor cells): < 10 µM

Structure (SMILES): COn1c(=O)c(-c2c(Cl)cccc2Cl)cc2cnc(Nc3ccc(OCCN4CCCC4)cc3)nc21 [Compound 91, 6-(2,6-Dichlorophenyl)-8-methoxy-2-(4-(2-pyrrolidinoethyl)oxyphenyl) amino-pyrido[2,3-d]pyrimidin-7-one]
- IC50 (B-Raf delta1-415): < 0.5 µM
- IC50 (HT-29 tumor cells): < 1 µM

Structure (SMILES): COn1c(=O)c(-c2c(Cl)cccc2Cl)cc2cnc(Nc3ccc(OCCN4CC[C@H](O)C4)cc3)nc21 [Compound 92, 6-(2,6-Dichlorophenyl)-2-(4-(2-(3-(S)-hydroxypyrrolidino)ethyl)oxyphenyl)amino-8-methoxy-pyrido[2,3-d]pyrimidin-7-one]
- IC50 (B-Raf delta1-415): < 0.1 µM
- IC50 (HT-29 tumor cells): < 1 µM

Structure (SMILES): COn1c(=O)c(-c2c(Cl)cccc2Cl)cc2cnc(Nc3ccc(OCC(O)CO)cc3)nc21 (centres unmarked) [Compound 93, 6-(2,6-Dichlorophenyl)-2-(4-(2,3-dihydroxypropyl)oxyphenyl) amino-8-methoxy-pyrido[2,3-d]pyrimidin-7-one]
- IC50 (B-Raf delta1-415): < 0.5 µM
- IC50 (HT-29 tumor cells): < 1 µM

Structure (SMILES): COn1c(=O)c(-c2c(Cl)cccc2Cl)cc2cnc(Nc3cc(C(=O)NCCN4CCCC4)n(C)c3)nc21 [Compound 94, 6-(2,6-Dichlorophenyl)-8-methoxy-2-(5-(2-pyrrolidinoethyl)aminocarbonyl-1-methyl-pyrrol-3-yl)-amino-pyrido[2,3-d]pyrimidin-7-one]
- IC50 (B-Raf delta1-415): < 0.5 µM
- IC50 (HT-29 tumor cells): < 1 µM

Structure (SMILES): COn1c(=O)c(-c2c(Cl)cccc2Cl)cc2cnc(Nc3cc(C(=O)NCCCN4CCCC4)n(C)c3)nc21 [Compound 95]
- IC50 (B-Raf delta1-415): < 0.5 µM
- IC50 (HT-29 tumor cells): < 1 µM

Structure (SMILES): C/C=C/C(=O)Nc1ncc2cc(-c3c(C)cccc3C)c(=O)n(OC)c2n1 [Compound 96, 2-But-2-enoylamino-6-(2,6-dimethylphenyl)-8-methoxy-pyrido[2,3-d]pyrimidin-7-one]
- IC50 (B-Raf delta1-415): > 1 µM
- IC50 (HT-29 tumor cells): > 10 µM

Structure (SMILES): COn1c(=O)c(-c2c(Cl)cccc2Cl)cc2cnc(Nc3ccc(CC#N)cc3)nc21 [Compound 97, 2-(4-cyanomethylphenyl)-amino-6-(2,6-dichlorophenyl)-8-methoxy-pyrido[2,3-d]pyrimidin-7-one]
- IC50 (B-Raf delta1-415): < 0.1 µM
- IC50 (HT-29 tumor cells): < 1 µM

Structure (SMILES): Cn1cc(Nc2ncc3cc(-c4c(F)cccc4Cl)c(=O)n(OCC4CCOCC4)c3n2)cc1C(=O)N1CCNCC1 [Compound 224, 6-(2-Chloro-6-fluorophenyl)-2-(5-(piperazinocarbonyl)-1-methyl-pyrrol-3-yl)-amino-8-(tetrahydropyran-4-ylmethyl)oxy-pyrido[2,3-d]pyrimidin-7-one]
- IC50 (HT-29 tumor cells): < 1 µM

Structure (SMILES): COc1cc(Nc2ncc3cc(-c4c(Cl)cccc4Cl)c(=O)n(OC)c3n2)ccc1N1CCNCC1 [Compound 227, 6-(2,6-Dichlorophenyl)-8-methoxy-2-(3-methoxy-4-piperazino-phenyl)-amino-pyrido[2,3-d]pyrimidin-7-one]
- IC50 (HT-29 tumor cells): < 1 µM

Structure (SMILES): CN1CCN(c2ccc(Nc3ncc4ccc(=O)n(OC(C)(C)C)c4n3)cc2)CC1 [Compound 233]
- IC50 (B-Raf delta1-415): > 1 µM

Structure (SMILES): CN1CCN(c2ccc(Nc3ncc4ccc(=O)n(OC5CCCCC5)c4n3)cc2)CC1 [Compound 236]
- IC50 (HT-29 tumor cells): < 1 µM
